One assay has as its system HCT116. Description: HCT116 IC50. The class given is cell-based. Particulars: Homo sapiens, HCT-116.
In another assay the target is T1, HDAC-1 (Homo sapiens, UniProt Q13547).
T1 construct: made in house; host or cells: Sf9 or Sf21 insect cells (baculovirus, donor vector pFB-GSTX3)
Description: HDAC inhibition assay (purified GST-HDAC protein). It counts as biochemical.

Structures are written as SMILES.

T1 sequence (Q13547 whole entry, species assumed): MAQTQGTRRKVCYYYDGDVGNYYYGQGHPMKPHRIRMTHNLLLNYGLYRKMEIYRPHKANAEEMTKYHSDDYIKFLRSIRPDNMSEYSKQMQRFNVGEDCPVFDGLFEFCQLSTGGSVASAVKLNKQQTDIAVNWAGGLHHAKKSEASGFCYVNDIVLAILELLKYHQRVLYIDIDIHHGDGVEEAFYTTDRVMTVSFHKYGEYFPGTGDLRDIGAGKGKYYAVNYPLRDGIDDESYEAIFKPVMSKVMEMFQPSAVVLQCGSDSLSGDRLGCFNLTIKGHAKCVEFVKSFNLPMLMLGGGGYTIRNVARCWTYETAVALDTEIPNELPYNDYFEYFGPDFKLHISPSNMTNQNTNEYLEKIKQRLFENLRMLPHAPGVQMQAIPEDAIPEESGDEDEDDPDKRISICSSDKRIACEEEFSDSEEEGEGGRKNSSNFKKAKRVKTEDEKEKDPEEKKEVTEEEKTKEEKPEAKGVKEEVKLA

In the case of `Cn1nnc(CCN2CCC[C@H]2c2ccc(/C=C/C(=O)NO)cc2)n1` [Compound 81, (E)-N-Hydroxy-3-(4-{(S)-1-[2-(2-methyl-2H-tetrazol-5-yl)-ethyl]-pyrrolidin-2-yl}-phenyl)-acrylamide], the IC50 with HCT116 worked out at 230 nM; on HDAC-1 it was 67 nM.
Taken in the same sequence, the figures for `O=C(/C=C/c1ccc([C@@H]2CCCCN2CCc2cnn3ccccc23)cc1)NO` [Compound 85, (E)-N-Hydroxy-3-{4-[(S)-1-(2-pyrazolo[1,5-a]pyridin-3-yl-ethyl)-piperidin-2-yl]-phenyl}-acrylamide] were 9 nM and 4 nM.
In the same order, the values of `O=C(/C=C/c1ccc([C@@H]2CCCCCN2CCc2cnn3ccccc23)cc1)NO` [Compound 86, (E)-N-Hydroxy-3-{4-[(S)-1-(2-pyrazolo[1,5-a]pyridin-3-yl-ethyl)-azepan-2-yl]-phenyl}-acrylamide] are 42 nM and 10 nM.
With `Cc1[nH]c2ccccc2c1CCN1CCN(C(=O)OC(C)(C)C)CC1c1ccc(/C=C/C(=O)NO)cc1` (centres unmarked) [Compound 87, 3-[4-((E)-2-Hydroxycarbamoyl-vinyl)-phenyl]-4-[2-(2-methyl-1H-indol-3-yl)-ethyl]-piperazine-1-carboxylic acid tert-butyl ester], the results for the IC50 in the assay with HCT116 and against HDAC-1 were 58 nM and 35 nM, respectively.
Taken in the same sequence, the figures for `Cc1[nH]c2ccccc2c1CCN1CCN(C)CC1c1ccc(/C=C/C(=O)NO)cc1` (centres unmarked) [Compound 88, (E)-N-Hydroxy-3-(4-{4-methyl-1-[2-(2-methyl-1H-indol-3-yl)-ethyl]-piperazin-2-yl}-phenyl)-acrylamide] were 24 nM and 9 nM.
Taken in the same sequence, the figures for `Cc1[nH]c2ccccc2c1CCN1CCNCC1c1ccc(/C=C/C(=O)NO)cc1` (centres unmarked) [Compound 89, (E)-N-Hydroxy-3-(4-{1-[2-(2-methyl-1H-indol-3-yl)-ethyl]-piperazin-2-yl}-phenyl)-acrylamide] were 200 nM and 7 nM.
Taken in the same sequence, the figures for `CN1CCN(CCc2cnn3ccccc23)C(c2ccc(/C=C/C(=O)NO)cc2)C1` (centres unmarked) [Compound 90, (E)-N-Hydroxy-3-{4-[4-methyl-1-(2-pyrazolo[1,5-a]pyridin-3-yl-ethyl)-piperazin-2-yl]-phenyl}-acrylamide] were 34 nM and 8 nM.
As for `O=C(/C=C/c1ccc([C@@H]2CCCN2CCc2cnn3ccccc23)c(F)c1)NO` [Compound 91, (E)-3-{3-Fluoro-4-[(S)-1-(2-pyrazolo[1,5-a]pyridin-3-yl-ethyl)-pyrrolidin-2-yl]-phenyl}-N-hydroxy-acrylamide], the results for the 50% inhibitory concentration (IC50) in the assay on HCT116 and against HDAC-1 were 2 nM and 4 nM, respectively.
In the same order, the values of `O=C(/C=C/c1ccc([C@@H]2CCCN2CCc2cnn3ccccc23)c(Cl)c1)NO` [Compound 92, (E)-3-{3-Chloro-4-[(S)-1-(2-pyrazolo[1,5-a]pyridin-3-yl-ethyl)-pyrrolidin-2-yl]-phenyl}-N-hydroxy-acrylamide] are 3 nM and 4 nM.
Taken in the same sequence, the figures for `O=C(/C=C/c1ccc([C@@H]2CCCN2CCc2cnn3ccccc23)cc1F)NO` [Compound 93, (E)-3-{2-Fluoro-4-[(S)-1-(2-pyrazolo[1,5-a]pyridin-3-yl-ethyl)-pyrrolidin-2-yl]-phenyl}-N-hydroxy-acrylamide] were 1.1 nM and 1.4 nM.
As for `O=C(/C=C/c1cc(F)c([C@@H]2CCCN2CCc2cnn3ccccc23)c(F)c1)NO` [Compound 94, (E)-3-{3,5-Difluoro-4-[(S)-1-(2-pyrazolo[1,5-a]pyridin-3-yl-ethyl)-pyrrolidin-2-yl]-phenyl}-N-hydroxy-acrylamide], the IC50 with HCT116 was determined as 5 nM; at HDAC-1, 1.4 nM.
Taken in the same sequence, the figures for `Cc1n[nH]c(C)c1CCN1CCC[C@H]1c1ccc(/C=C/C(=O)NO)cc1` [Compound 95, (E)-3-(4-{(S)-1-[2-(3,5-Dimethyl-1H-pyrazol-4-yl)-ethyl]-pyrrolidin-2-yl}-phenyl)-N-hydroxy-acrylamide] were 3 nM and 1.6 nM.
In the same order, the values of `CCn1nc(C)c(CCN2CCC[C@H]2c2ccc(/C=C/C(=O)NO)cc2)c1C` [Compound 96, (E)-3-(4-{(S)-1-[2-(1-Ethyl-3,5-dimethyl-1H-pyrazol-4-yl)-ethyl]-pyrrolidin-2-yl}-phenyl)-N-hydroxy-acrylamide] are 2 nM and 1.7 nM.
Taken in the same sequence, the figures for `CCCCn1nc(C)c(CCN2CCC[C@H]2c2ccc(/C=C/C(=O)NO)cc2)c1C` [Compound 97, (E)-3-(4-{(S)-1-[2-(1-Butyl-3,5-dimethyl-1H-pyrazol-4-yl)-ethyl]-pyrrolidin-2-yl}-phenyl)-N-hydroxy-acrylamide] were 1.7 nM and 1.7 nM.
In the case of `O=C(/C=C/c1ccc([C@@H]2CCCN2CCS(=O)(=O)c2ccccc2)cc1)NO` [Compound 98, (E)-3-{4-[(S)-1-(2-Benzenesulfonyl-ethyl)-pyrrolidin-2-yl]-phenyl}-N-hydroxy-acrylamide], the IC50 in the assay on HCT116 was 50 nM; against HDAC-1, 36 nM.
Regarding `CCc1n[nH]c(CC)c1CCN1CCC[C@H]1c1ccc(/C=C/C(=O)NO)cc1` [Compound 99, (E)-3-(4-{(S)-1-[2-(3,5-Diethyl-1H-pyrazol-4-yl)-ethyl]-pyrrolidin-2-yl}-phenyl)-N-hydroxy-acrylamide], the IC50 came out at 1.4 nM in the assay with HCT116 and 0.8 nM against HDAC-1.
In the same order, the values of `Cc1[nH]nc(C(C)(C)C)c1CCN1CCC[C@H]1c1ccc(/C=C/C(=O)NO)cc1` [Compound 100, (E)-3-(4-{(S)-1-[2-(3-tert-Butyl-5-methyl-1H-pyrazol-4-yl)-ethyl]-pyrrolidin-2-yl}-phenyl)-N-hydroxy-acrylamide] are 0.5 nM and 1 nM.
Taken in the same sequence, the figures for `CC(C)n1nnc(CCN2CCC[C@H]2c2ccc(/C=C/C(=O)NO)cc2)n1` [Compound 101, (E)-N-Hydroxy-3-(4-{(S)-1-[2-(2-isopropyl-2H-tetrazol-5-yl)-ethyl]-pyrrolidin-2-yl}-phenyl)-acrylamide] were 160 nM and 58 nM.
In the same order, the values of `CC(C)n1nnnc1CCN1CCC[C@H]1c1ccc(/C=C/C(=O)NO)cc1` [Compound 102, (E)-N-Hydroxy-3-(4-{(S)-1-[2-(1-isopropyl-1H-tetrazol-5-yl)-ethyl]-pyrrolidin-2-yl}-phenyl)-acrylamide] are 32 nM and 25 nM.
For `CC(C)(C)n1nnc(CCN2CCC[C@H]2c2ccc(/C=C/C(=O)NO)cc2)n1` [Compound 104, (E)-3-(4-{(S)-1-[2-(2-tert-Butyl-2H-tetrazol-5-yl)-ethyl]-pyrrolidin-2-yl}-phenyl)-N-hydroxy-acrylamide], the concentration for half-maximal inhibition (IC50) in the assay on HCT116 came to 360 nM; at HDAC-1, 42 nM.
Taken in the same sequence, the figures for `O=C(/C=C/c1ccc([C@@H]2CCCN2CCc2nnn(C3CCC3)n2)cc1)NO` [Compound 105, (E)-3-(4-{(S)-1-[2-(2-Cyclobutyl-2H-tetrazol-5-yl)-ethyl]-pyrrolidin-2-yl}-phenyl)-N-hydroxy-acrylamide] were 160 nM and 120 nM.
In the same order, the values of `O=C(/C=C/c1ccc([C@@H]2CCCN2CCc2nnn(-c3ccc([N+](=O)[O-])cc3)n2)cc1)NO` [Compound 106, (E)-N-Hydroxy-3-[4-((S)-1-{2-[2-(4-nitro-phenyl)-2H-tetrazol-5-yl]-ethyl}-pyrrolidin-2-yl)-phenyl]-acrylamide] are 180 nM and 67 nM.
